For 46 compounds, EC50 and Emax results are on record in patent publication US20260098026A1, “M4 ACTIVATORS/MODULATORS AND USES THEREOF” (Cerevel Therapeutics, LLC, priority 2022, published 2026).

Assay [1] concerns the target T1, M3 muscarinic acetylcholine receptor (mAChR) (Homo sapiens, UniProt P20309).
T1 construct: expressed in transfected cells; host or cells: CHO-K1
As to the kind of experiment: FLIPR calcium assay (Fluo 8), M3-overexpressing CHO-K1 cells. Format: cell-based. The settings on record: FLIPR. The method, boiled down: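 CHO-K1 cells overexpressing each human receptor seeded at 15,000 per well, grown overnight at 37° C., 5% CO2, then loaded with Fluo-8 for 30 min. Compounds in HBSS added and calcium response read on FLIPR; EC50 and Emax calculated per subtype.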

For assay [2], the target named is T2, M4 mAChR (Homo sapiens, UniProt P08173).
T2 construct: expressed in transfected cells; host or cells: CHO-K1
T2 sequence (P08173 1-479): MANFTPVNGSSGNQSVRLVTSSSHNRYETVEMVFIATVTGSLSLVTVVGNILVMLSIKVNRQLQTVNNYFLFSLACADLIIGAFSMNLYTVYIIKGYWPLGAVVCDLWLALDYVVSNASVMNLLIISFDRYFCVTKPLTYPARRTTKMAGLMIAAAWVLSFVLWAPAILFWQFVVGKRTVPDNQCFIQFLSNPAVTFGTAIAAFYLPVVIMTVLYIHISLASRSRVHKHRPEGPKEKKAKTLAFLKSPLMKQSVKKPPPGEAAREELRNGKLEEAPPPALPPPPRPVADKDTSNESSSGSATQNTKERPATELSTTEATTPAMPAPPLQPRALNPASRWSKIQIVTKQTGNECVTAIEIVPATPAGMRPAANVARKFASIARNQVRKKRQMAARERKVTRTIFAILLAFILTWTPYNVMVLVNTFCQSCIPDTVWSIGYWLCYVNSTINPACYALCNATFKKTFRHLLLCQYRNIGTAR
In words: cAMP TR-FRET assay with forskolin, M4-overexpressing CHO-K1 cells. Format: cell-based. As to conditions: cAMP assay. The method, boiled down: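 CHO-K1 cells overexpressing the receptor were stimulated with forskolin to raise cAMP, so that Gi-mediated agonist decreases could be measured. cAMP was quantified by TR-FRET competition between cellular cAMP and labelled donor for anti-cAMP antibody, giving potency and efficacy.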
A general note: In TR-FRET formats the signal depends on donor and acceptor labels being close together.

T1 sequence (P20309 whole entry): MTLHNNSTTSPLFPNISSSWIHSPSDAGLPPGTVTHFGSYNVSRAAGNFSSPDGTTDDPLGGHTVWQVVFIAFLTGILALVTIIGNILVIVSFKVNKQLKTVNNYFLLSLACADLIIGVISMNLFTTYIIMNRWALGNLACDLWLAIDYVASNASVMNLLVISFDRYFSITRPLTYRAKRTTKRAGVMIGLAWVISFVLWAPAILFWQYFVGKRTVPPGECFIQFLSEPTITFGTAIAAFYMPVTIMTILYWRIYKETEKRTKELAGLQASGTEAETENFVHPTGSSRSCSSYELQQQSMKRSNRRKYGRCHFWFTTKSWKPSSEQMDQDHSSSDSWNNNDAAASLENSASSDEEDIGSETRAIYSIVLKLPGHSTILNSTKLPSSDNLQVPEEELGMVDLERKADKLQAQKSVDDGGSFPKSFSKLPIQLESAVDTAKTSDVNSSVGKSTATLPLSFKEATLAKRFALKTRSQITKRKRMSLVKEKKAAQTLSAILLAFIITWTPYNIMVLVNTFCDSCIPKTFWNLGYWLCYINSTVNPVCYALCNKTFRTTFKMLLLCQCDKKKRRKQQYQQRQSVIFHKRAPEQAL

With `CCOC(=O)N1CC2(CC[C@@H](N3CCN(c4cc(F)cnc4-c4cccnc4F)CC3)C2)C1` [Compound A179], the EC50 in assay [1] is more than 10 µM. This compound also registered an Emax in assay [2] of 80 to 100%.
For `CCOC(=O)N1CC2(CC[C@@H](N3CCN(c4cc(F)cnc4-c4ccc(OC)nc4F)CC3)C2)C1` [Compound A180], in that order: more than 10 µM and 80 to 100%.
As to `CCOC(=O)N1CC2(CC[C@@H](N3CCN(c4cc(F)cnc4-c4cncnc4C)CC3)C2)C1` [Compound A181], the EC50 in assay [1] is more than 10 µM. The Emax in assay [2] was 80 to 100%.
For `CCOC(=O)N1CC2(CC[C@@H](N3CCN(c4cc(F)cnc4-c4ccc(C#N)cc4)CC3)C2)C1` [Compound A182], in that order: more than 10 µM and 80 to 100%.
In the same order, the values of `CCOC(=O)N1CC2(CC[C@@H](N3CCN(c4cc(F)cnc4-c4cnc(C5CC5)nc4)CC3)C2)C1` [Compound A183] are more than 10 µM and 80 to 100%.
In the same order, the values of `CCOC(=O)N1CC2(CC[C@@H](N3CCN(c4cc(F)cnc4-c4ccc(C)nc4)CC3)C2)C1` [Compound A186] are more than 10 µM and 80 to 100%.
Turning to `[2H]C([2H])([2H])n1cc(-c2ncc(F)cc2N2CCN([C@@H]3CCC4(C3)CN(C(=O)OCC)C4)CC2)cn1` [Compound A187], the EC50 in assay [1] was more than 10 µM. This compound showed an Emax in assay [2] of 80 to 100%.
In the same order, the values of `CCOC(=O)N1CC2(CC[C@@H](N3CCN(c4cc(F)cnc4-c4ccc(OC)nc4)CC3)C2)C1` [Compound A188] are more than 10 µM and 80 to 100%.
In the same order, the values of `CCOC(=O)N1CC2(CC[C@@H](N3CCN(c4cc(F)cnc4-c4ccc(OC(F)F)nc4)CC3)C2)C1` [Compound A189] are more than 10 µM and 80 to 100%.
For `CCOC(=O)N1CC2(CC[C@@H](N3CCN(c4cc(F)cnc4-c4cnn(C)c4)CC3)C2)C1` [Compound A190], in that order: more than 10 µM and 80 to 100%.
Turning to `CCOC(=O)N1CC2(CC[C@@H](N3CCN(c4cc(F)cnc4-c4cnn(C(C)(C)C)c4)CC3)C2)C1` [Compound A191], the EC50 in assay [1] was more than 10 µM. This compound also displayed an Emax in assay [2] of 50 to 79.9%.
For `CCOC(=O)N1CC2(CC[C@@H](N3CCN(c4cc(F)cnc4-c4ccc5c(c4)CN(C)C5=O)CC3)C2)C1` [Compound A192], in that order: more than 10 µM and 80 to 100%.
For `CCOC(=O)N1CC2(CC[C@@H](N3CCN(c4cc(F)cnc4C4=CCOCC4)CC3)C2)C1` [Compound A193], in that order: more than 10 µM and 80 to 100%.
In the same order, the values of `CCOC(=O)N1CC2(CC[C@@H](N3CCN(c4cc(F)cnc4-c4cnn(C(C)C)c4)CC3)C2)C1` [Compound A195] are more than 10 µM and 50 to 79.9%.
Regarding `CCOC(=O)N1CC2(CC[C@@H](N3CCN(c4cc(F)cnc4C4=CCN(C)CC4)CC3)C2)C1` [Compound A197], in assay [1], the EC50 is more than 10 µM. For the same compound, the Emax in assay [2] fell in the range of 80 to 100%.
In the same order, the values of `CCOC(=O)N1CC2(CC[C@@H](N3CCN(c4cc(F)cnc4-c4ccn(C(F)F)n4)CC3)C2)C1` [Compound A198] are more than 10 µM and 50 to 79.9%.
As for `[2H]C([2H])([2H])n1ccc(-c2ncc(F)cc2N2CCN([C@@H]3CCC4(C3)CN(C(=O)OCC)C4)CC2)n1` [Compound A199], the EC50 in assay [1] is more than 10 µM. Moreover, in assay [2], the Emax fell in the range of 19 to 49.9%.
Consider `CCOC(=O)N1CC2(CC[C@@H](N3CCN(c4cc(F)cnc4-c4ccn(C(C)(C)C)n4)CC3)C2)C1` [Compound A200], for which the half-maximal effective concentration (EC50) in assay [1] was more than 10 µM. The compound also yielded an Emax in assay [2] of 19 to 49.9%.
In the same order, the values of `CCOC(=O)N1CC2(CC[C@@H](N3CCN(c4cc(F)cnc4-c4ccc(=O)[nH]c4C)CC3)C2)C1` [Compound A201] are more than 10 µM and 80 to 100%.
In the same order, the values of `CCOC(=O)N1CC2(CC[C@@H](N3CCN(c4cc(F)cnc4-c4cc(C)c(=O)n(C)c4)CC3)C2)C1` [Compound A202] are more than 10 µM and 19 to 49.9%.
In the same order, the values of `CCOC(=O)N1CC2(CC[C@@H](N3CCN(c4cc(F)cnc4-c4cccn(C)c4=O)CC3)C2)C1` [Compound A203] are more than 10 µM and 19 to 49.9%.
For `CCOC(=O)N1CC2(CC[C@@H](N3CCN(c4cc(Cl)cnc4-c4cnn(C)c4)CC3)C2)C1` [Compound A204], the EC50 in assay [1] was more than 10 µM. The Emax in assay [2] was in the range of 80 to 100%.
For `CCOC(=O)N1CC2(CC[C@@H](N3CCN(c4cc(F)cnc4-c4cc(C)[nH]c(=O)c4)CC3)C2)C1` [Compound A205], in that order: more than 10 µM and 80 to 100%.
For `CCOC(=O)N1CC2(CC[C@@H](N3CCN(c4cc(Cl)cnc4-c4ccc(=O)n(C)c4)CC3)C2)C1` [Compound A207], in that order: more than 10 µM and 80 to 100%.
For `CCOC(=O)N1CC2(CC[C@@H](N3CCN(c4cc(Cl)cnc4-c4ccn(C)n4)CC3)C2)C1` [Compound A208], in that order: more than 10 µM and 50 to 79.9%.
Turning to `CCOC(=O)N1CC2(CC[C@@H](N3CCN(c4cc(Cl)cnc4-c4ccn(C)c(=O)c4)CC3)C2)C1` [Compound A209], the 50% effective concentration (EC50) in assay [1] was more than 10 µM. The same compound had an Emax in assay [2] of 80 to 100%.
For `CCOC(=O)N1CC2(CC[C@@H](N3CCN(c4cccnc4N4CCCCC4)CC3)C2)C1` [Compound A215], in that order: more than 10 µM and 80 to 100%.
For `CCOC(=O)N1CC2(CCC(N3CCN(c4cccnc4N4CCC(OC)CC4)CC3)C2)C1` (centres unmarked) [Compound A216], in that order: more than 10 µM and 80 to 100%.
For `CCOC(=O)N1CC2(CCC(N3CCN(c4cccnc4N4CCC(C#N)CC4)CC3)C2)C1` (centres unmarked) [Compound A217], in that order: more than 10 µM and 80 to 100%.
As for `CCOC(=O)N1CC2(CC[C@@H](N3CCN(c4cc(F)cnc4-c4ccc(F)cn4)CC3)C2)C1` [Compound A218], the EC50 in assay [1] was more than 10 µM. Moreover, the Emax in assay [2] lay in the range of 80 to 100%.
In the same order, the values of `CCOC(=O)N1CC2(CC[C@@H](N3CCN(c4cc(Cl)cnc4-c4cnccn4)CC3)C2)C1` [Compound A221] are more than 10 µM and 80 to 100%.
In the case of `CCOC(=O)N1CC2(CC[C@@H](N3CCN(c4cc(F)cnc4-c4cnc(OC)cn4)CC3)C2)C1` [Compound A226], the EC50 in assay [1] is more than 10 µM. The same compound yielded an Emax in assay [2] of 80 to 100%.
As to `CCOC(=O)N1CC2(CC[C@@H](N3CCN(c4cc(F)cnc4-c4ccccn4)CC3)C2)C1` [Compound A227], the EC50 in assay [1] was more than 10 µM. The same compound returned an Emax in assay [2] of 80 to 100%.
Consider `CCOC(=O)N1CC2(CC[C@@H](N3CCN(c4cc(F)cnc4-c4ccc(C)cn4)CC3)C2)C1` [Compound A228], for which, in assay [1], the EC50 is more than 10 µM. In assay [2], this compound gave an Emax of 80 to 100%.
In the same order, the values of `CCOC(=O)N1CC2(CC[C@@H](N3CCN(c4cc(F)cnc4OC4CCOCC4)CC3)C2)C1` [Compound A229] are more than 10 µM and 80 to 100%.
In the same order, the values of `CCOC(=O)N1CC2(CC[C@@H](N3CCN(c4cc(F)cnc4-c4cn(C)nn4)CC3)C2)C1` [Compound A230] are more than 10 µM and 80 to 100%.
As for `CCOC(=O)N1CC2(CC[C@@H](N3CCN(c4cc(F)cnc4-c4cnc(C)cn4)CC3)C2)C1` [Compound A231], the EC50 in assay [1] was more than 10 µM. The compound further gave an Emax in assay [2] of 50 to 79.9%.
For the compound `CCOC(=O)N1CC2(CC[C@@H](N3CCN(c4cc(F)cnc4OC4CC5(COC5)C4)CC3)C2)C1` [Compound A233], the EC50 in assay [1] is more than 10 µM. The compound further showed an Emax in assay [2] of 80 to 100%.
In the same order, the values of `CCOC(=O)N1CC2(CC[C@@H](N3CCN(c4cc(F)cnc4-c4ccc(C#N)cn4)CC3)C2)C1` [Compound A234] are more than 10 µM and 80 to 100%.
In the case of `CCOC(=O)N1CC2(CC[C@@H](N3CCN(c4cc(F)cnc4-c4cnc(OC(F)F)cn4)CC3)C2)C1` [Compound A235], the EC50 in assay [1] was more than 10 µM. The Emax in assay [2] fell in the range of 80 to 100%.
For `CCOC(=O)N1CC2(CC[C@@H](N3CCN(c4cc(F)cnc4-c4ccc(C(F)(F)F)nn4)CC3)C2)C1` [Compound A243], in that order: more than 10 µM and 50 to 79.9%.
In the same order, the values of `CCOC(=O)N1CC2(CC[C@@H](N3CCN(c4cccnc4-c4cnccn4)CC3)C2)C1` [Compound A244] are more than 10 µM and 80 to 100%.
Turning to `CCOC(=O)N1CC2(CC[C@@H](N3CCN(c4cc(Cl)cnc4-c4cccnn4)CC3)C2)C1` [Compound A245], the EC50 in assay [1] was more than 10 µM. The same compound showed an Emax in assay [2] of 80 to 100%.
With `CCOC(=O)N1CC2(CC[C@@H](N3CCN(c4cc(F)cnc4-n4cc(C)nn4)CC3)C2)C1` [Compound A246], the EC50 in assay [1] was more than 10 µM. In addition, in assay [2], the Emax fell in the range of 80 to 100%.
In the same order, the values of `CCOC(=O)N1CC2(CC[C@@H](N3CCN(c4cc(Cl)cnc4-n4cc(C)nn4)CC3)C2)C1` [Compound A247] are more than 10 µM and 80 to 100%.
In the same order, the values of `CCOC(=O)N1CC2(CC[C@@H](N3CCN(c4cc(Cl)cnc4-c4nncs4)CC3)C2)C1` [Compound A249] are more than 10 µM and 80 to 100%.

Usually EC50 stands for the concentration giving half of the maximal effect. For orientation: Emax means the maximal effect, on the per cent scale that the assay sets.
